Measurements taken from ChEMBL document CHEMBL4819054, “Rotenoids and Other Specialized Metabolites from the Roots of Mirabilis multiflora: Opioid and Cannabinoid Receptor Radioligand Binding Affinities” (J Nat Prod, 2021).
The source made the active and inactive calls. The calls are words filed in the database; no cut-off is given here.

Tests used:
Details in all cases: Membrane
[1] = biological target: Cannabinoid receptor 2 (Homo sapiens) (UniProt P34972); assay: Displacement of [3H]-CP-55,940 from full-length recombinant human CB2R expressed in CHO-K1 cell membranes at 10 uM incubated for 90 mins by TopCount scintillation counting method relative to control
Sequence of Cannabinoid receptor 2 (Homo sapiens) (P34972 whole entry): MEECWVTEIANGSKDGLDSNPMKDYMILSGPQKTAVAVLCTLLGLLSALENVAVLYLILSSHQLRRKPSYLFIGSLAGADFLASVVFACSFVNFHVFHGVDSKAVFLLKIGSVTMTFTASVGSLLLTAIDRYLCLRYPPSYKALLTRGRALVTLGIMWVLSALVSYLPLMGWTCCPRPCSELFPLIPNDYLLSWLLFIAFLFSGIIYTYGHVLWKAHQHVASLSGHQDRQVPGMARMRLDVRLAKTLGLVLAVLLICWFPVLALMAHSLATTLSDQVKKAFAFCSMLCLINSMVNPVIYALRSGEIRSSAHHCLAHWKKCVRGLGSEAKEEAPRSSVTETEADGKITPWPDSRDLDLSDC

[2] = biological target: Kappa-type opioid receptor (Homo sapiens) (UniProt P41145); assay: Displacement of [3H]-U69593 from human kappa opioid receptor expressed in CHO-K1 cell membranes at 10 uM incubated for 60 mins by TopCount scintillation counting method relative to control
Sequence of Kappa-type opioid receptor (Homo sapiens) (P41145 whole entry): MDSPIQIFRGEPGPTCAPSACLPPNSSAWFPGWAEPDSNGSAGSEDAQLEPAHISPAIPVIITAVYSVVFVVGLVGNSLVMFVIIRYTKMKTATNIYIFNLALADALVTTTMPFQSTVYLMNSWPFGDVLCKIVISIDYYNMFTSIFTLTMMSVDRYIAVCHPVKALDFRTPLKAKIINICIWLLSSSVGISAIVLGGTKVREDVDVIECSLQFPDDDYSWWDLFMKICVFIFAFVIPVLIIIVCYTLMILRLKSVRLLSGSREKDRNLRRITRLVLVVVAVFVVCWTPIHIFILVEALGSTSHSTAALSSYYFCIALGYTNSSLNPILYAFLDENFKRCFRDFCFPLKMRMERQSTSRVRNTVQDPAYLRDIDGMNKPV

[3] = biological target: Cannabinoid receptor 1 (Homo sapiens) (UniProt P21554); assay: Displacement of [3H]-CP-55,940 from full-length recombinant human CB1R expressed in CHO-K1 cell membranes at 10 uM incubated for 90 mins by TopCount scintillation counting method relative to control
Sequence of Cannabinoid receptor 1 (Homo sapiens) (P21554 whole entry): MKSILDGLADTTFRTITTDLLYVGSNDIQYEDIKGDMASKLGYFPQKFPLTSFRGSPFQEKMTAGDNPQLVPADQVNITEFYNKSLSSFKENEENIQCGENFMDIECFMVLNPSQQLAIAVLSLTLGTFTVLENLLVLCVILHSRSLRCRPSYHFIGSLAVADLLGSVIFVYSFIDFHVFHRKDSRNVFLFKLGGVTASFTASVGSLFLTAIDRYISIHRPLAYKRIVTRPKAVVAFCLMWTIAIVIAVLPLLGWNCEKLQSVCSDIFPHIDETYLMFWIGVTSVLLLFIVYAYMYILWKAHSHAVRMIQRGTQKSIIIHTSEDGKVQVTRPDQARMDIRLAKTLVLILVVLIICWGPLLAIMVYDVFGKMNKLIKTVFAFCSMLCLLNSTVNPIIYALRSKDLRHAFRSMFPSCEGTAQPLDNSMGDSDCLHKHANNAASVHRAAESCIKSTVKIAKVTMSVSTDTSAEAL

[4] = biological target: Delta-type opioid receptor (Homo sapiens) (UniProt P41143); assay: Displacement of [3H]-DPDPE from human delta opioid receptor expressed in CHO-K1 cell membranes at 10 uM incubated for 60 mins by TopCount scintillation counting method relative to control
Sequence of Delta-type opioid receptor (Homo sapiens) (P41143 whole entry): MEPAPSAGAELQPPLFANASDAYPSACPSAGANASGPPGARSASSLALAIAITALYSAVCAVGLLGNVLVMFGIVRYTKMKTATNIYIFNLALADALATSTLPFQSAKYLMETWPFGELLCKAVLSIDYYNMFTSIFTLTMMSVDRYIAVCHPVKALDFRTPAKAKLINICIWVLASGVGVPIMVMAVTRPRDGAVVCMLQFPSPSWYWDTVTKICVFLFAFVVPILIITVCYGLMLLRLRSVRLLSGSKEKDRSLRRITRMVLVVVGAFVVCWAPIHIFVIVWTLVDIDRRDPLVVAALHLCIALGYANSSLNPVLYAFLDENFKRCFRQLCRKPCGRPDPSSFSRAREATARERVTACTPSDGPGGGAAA

[5] = biological target: Mu-type opioid receptor (Homo sapiens) (UniProt P35372); assay: Displacement of [3H]-DAMGO from human mu opioid receptor expressed in CHO-K1 cell membranes at 10 uM incubated for 60 mins by TopCount scintillation counting method relative to control
Sequence of Mu-type opioid receptor (Homo sapiens) (P35372 whole entry): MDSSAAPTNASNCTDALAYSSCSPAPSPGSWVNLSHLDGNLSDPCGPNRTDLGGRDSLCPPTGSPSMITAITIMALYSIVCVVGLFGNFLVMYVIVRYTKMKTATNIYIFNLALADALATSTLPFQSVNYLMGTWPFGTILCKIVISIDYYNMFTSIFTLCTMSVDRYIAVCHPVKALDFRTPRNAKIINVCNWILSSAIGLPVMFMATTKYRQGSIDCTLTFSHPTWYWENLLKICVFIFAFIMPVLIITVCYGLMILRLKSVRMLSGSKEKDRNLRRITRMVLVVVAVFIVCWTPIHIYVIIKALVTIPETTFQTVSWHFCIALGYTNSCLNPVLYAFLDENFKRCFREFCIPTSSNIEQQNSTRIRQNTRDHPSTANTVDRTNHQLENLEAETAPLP

Row | Structure (SMILES) | Activity [1] | Activity [2] | Activity [3] | Activity [4] | Activity [5]
1 | COc1c(C)c(O)c2c(c1C)O[C@H]1[C@H](OC)Oc3c(O)cccc3[C@]1(O)C2=O | inactive | 41.8% | 17% | 31.6% | 55.3%
2 | CO[C@@H]1Oc2ccccc2-c2c1oc1cc(O)c(C)c(O)c1c2=O | inactive | 48.8% | inactive | 24.5% | 64.5%
3 | COc1cc2c(c(O)c1C)C(=O)[C@@]1(O)c3cccc(O)c3O[C@@H](OC)[C@@H]1O2 | 7.4% | 28.9% | 42.2% | 20.1% | 39.6%
4 | COc1c(C)c(O)c2c(c1C)O[C@H]1COc3c(O)cccc3[C@]1(O)C2=O | inactive | 38.9% | inactive | 15.2% | 45.9%
5 | COc1cc2c(c(O)c1C)C(=O)[C@@]1(O)c3cccc(O)c3OC[C@@H]1O2 | inactive | 21.8% | inactive | 26.3% | 50.9%
6 | COc1cc2c(c(O)c1C)C(=O)[C@@]1(O)c3cccc(OC)c3O[C@@H](OC)[C@@H]1O2 | 5.4% | 30.5% | inactive | 12.3% | 58.6%
